pIC50: −log10 of the molar value. Where two headings read alike, the source gives them in different places.
What was measured:
[1] = target: T1, LFA-1/ICAM-1 interactions (Homo sapiens, UniProt P20701); test: Jurkat or Hut 78 cell adhesion to ICAM-1; assay type: cell-based
T1 construct: host or cells: Jurkat or Hut 78 cells
Description: Jurkat or Hut 78 cells obtained from ATCC and cultured in RPMI-1640 supplemented with 10% FCS, L-glutamine, non essential amino acids and 0.05 mM 2-mercaptoethanol, are centrifuged, washed once in PBS, and resuspended at 0.5×10^6 cells/ml in binding buffer (1.5% BSA, 5 mM glucose, 2 mM MgCl2, […] MnCl2 in TBS, pH 7) containing 5 μg/ml BCECF-AM (Molecular Probes). The cells are incubated at 37° C. for 30-45 min. in the dark. Then the cells are centrifuged and resuspended in binding buffer by pipetting and immediately used for experiment.
Flat well microtiter plates (NUNC Maxisorp) are coated with 1 μg/ml goat anti-mouse Cκ (Bioreba, South.Biot.) in carbonate buffer (15 mM Na2CO3, 35 mM NaHCO3, pH8.0) 2 hours at 37° C. The plates are emptied and blocked with 1.5% BSA and 0.5% Tween-20 in carbonate buffer for 90 min. at 37° C. The plates are emptied and washed once in TBS containing, 1.5% BSA. Baculovirus derived ICAM-1 mouse Cκ fusion protein (100 ng/ml in TBS/1.5% BSA) is added to the wells. The plates are incubated for 90 min. at 37° C. After three washes with TBS/1.5% BSA, the compound to be tested is diluted in binding buffer (as above but free from BSA and glucose) and added to the wells. Then 100 000 Jurkat or Hut 78 cells/well are added and allowed to adhere for 30 min. at 37° C. Adherent cells are separated from non-adherent cells by 2-4 washes using binding buffer. Adherent cells are quantified with a fluorescence ELISA reader CytofluorII with the filters set at 485 nm and 530 nm emission.

[2] = test system: thioglycollate induced neutrophil migration; test: Murine thioglycollate induced peritonitis; assay type: in vivo; conditions: s.c., mice
Description: Thioglycollate is injected i.p. to mice and immediately thereafter the compound to be tested is given s.c. The mice are killed after 4 hours, the peritoneal cavity lavaged and the total number of neutrophils in the lavage fluid is determined.
In this assay, the compounds of the invention, e.g. mevinolins inhibit thioglycollate induced neutrophil migration when administered s.c. at a dose of from 0.001-50 mg/kg.

LFA-1 I-domain = target: T2, LFA-1 I-domain (Homo sapiens, UniProt P20701); test: X-ray analysis of the complex of LFA-1 I-domain with mevinolin; assay type: binding
T2 construct: amino acid residues 128 to 309 of the α-chain of LFA-1 which corresponds to the I-domain
T2 sequence (P20701 153-334): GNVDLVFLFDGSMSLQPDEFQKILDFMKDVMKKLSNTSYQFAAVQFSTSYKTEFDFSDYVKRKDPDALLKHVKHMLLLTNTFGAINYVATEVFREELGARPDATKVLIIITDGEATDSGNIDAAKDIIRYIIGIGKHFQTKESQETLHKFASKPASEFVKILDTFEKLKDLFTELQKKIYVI
Description: The complex, LFA-1 I-domain/mevinolin, is prepared by adding mevinolin (100 mM solution in DMSO) to the protein solution (12.7 mg/ml, 100 mM MgSO4), followed by crystallization. The structure is solved by molecular replacement (using the coordinates of apo LFA-1 I domain, A. Qu & D. Leahy, above) and has been refined to a R factor of 19.4% (Rfree=25.9%) using X-ray amplitudes in the resolution range 8 Å-2.6 Å. The final model contains 2×182 amino acids (amino acid residues 128 to 309 of the α-chain of LFA-1 which corresponds to the I-domain), 2 mevinolin molecules and a total of 86 water molecules.

[3] = Jurkat cells, adhesion to ICAM-1, read-out: IC50 in the Jurkat Cell Assay

T1 sequence (P20701 26-1170): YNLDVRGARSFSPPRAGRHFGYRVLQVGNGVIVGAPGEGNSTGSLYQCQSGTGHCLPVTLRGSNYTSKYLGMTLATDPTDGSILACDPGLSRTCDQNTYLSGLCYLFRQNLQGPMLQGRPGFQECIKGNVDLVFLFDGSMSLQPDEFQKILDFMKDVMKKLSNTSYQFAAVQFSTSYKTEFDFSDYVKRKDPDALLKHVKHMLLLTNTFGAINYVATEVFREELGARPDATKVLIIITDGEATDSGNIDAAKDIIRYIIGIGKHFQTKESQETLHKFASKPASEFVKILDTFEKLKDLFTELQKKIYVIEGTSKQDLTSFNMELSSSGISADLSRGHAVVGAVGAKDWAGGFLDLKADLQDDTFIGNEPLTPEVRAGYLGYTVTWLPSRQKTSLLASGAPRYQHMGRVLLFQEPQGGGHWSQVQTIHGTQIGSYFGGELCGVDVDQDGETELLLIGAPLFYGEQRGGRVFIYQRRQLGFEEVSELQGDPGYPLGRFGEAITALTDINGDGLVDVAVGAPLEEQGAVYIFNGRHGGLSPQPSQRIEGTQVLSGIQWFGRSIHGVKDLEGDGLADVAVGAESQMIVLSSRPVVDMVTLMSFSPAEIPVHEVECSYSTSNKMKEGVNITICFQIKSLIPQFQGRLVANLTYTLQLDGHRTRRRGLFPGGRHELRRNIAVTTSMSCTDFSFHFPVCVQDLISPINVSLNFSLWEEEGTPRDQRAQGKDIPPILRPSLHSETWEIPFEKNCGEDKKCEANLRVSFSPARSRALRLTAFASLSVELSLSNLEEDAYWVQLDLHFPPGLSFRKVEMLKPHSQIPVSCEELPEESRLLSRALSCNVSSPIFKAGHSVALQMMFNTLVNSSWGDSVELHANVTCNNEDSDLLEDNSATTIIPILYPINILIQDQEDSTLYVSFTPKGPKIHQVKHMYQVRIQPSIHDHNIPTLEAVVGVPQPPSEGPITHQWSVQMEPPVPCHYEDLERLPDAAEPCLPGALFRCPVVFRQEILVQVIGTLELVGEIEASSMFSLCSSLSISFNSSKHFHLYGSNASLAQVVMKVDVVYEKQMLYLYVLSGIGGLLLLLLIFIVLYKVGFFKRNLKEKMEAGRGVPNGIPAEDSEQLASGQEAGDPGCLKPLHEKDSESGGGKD
T1 sequence (P05107 23-769 partner): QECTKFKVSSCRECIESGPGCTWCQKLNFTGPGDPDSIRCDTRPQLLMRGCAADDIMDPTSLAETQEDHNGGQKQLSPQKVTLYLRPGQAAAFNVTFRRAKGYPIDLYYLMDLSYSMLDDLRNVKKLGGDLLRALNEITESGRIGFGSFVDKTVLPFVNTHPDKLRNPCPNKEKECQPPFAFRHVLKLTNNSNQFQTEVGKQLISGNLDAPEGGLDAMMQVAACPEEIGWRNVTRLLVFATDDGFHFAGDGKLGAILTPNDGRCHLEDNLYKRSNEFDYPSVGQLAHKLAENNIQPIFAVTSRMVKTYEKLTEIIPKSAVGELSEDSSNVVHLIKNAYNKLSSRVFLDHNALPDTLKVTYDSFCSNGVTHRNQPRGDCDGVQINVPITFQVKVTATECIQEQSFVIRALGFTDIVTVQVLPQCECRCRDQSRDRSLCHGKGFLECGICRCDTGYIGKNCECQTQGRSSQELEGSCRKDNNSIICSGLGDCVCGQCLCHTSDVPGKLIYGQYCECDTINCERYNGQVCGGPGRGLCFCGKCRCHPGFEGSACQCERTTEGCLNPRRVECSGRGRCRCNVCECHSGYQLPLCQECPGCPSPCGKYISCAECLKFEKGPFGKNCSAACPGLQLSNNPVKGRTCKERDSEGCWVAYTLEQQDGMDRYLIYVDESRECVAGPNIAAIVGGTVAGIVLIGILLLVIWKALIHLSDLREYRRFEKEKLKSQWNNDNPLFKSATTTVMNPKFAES

CCC(C)C(=O)OC1CC(C)C=C2C=CC(C)C(CCC(O)CC(CC(=O)NCCO)NCCO)C21 (stereo not shown) [Example 6, 2-Methyl-butyric Acid 8-[3-Hydroxy-5-(2-hydroxy-ethylamino)-6-(2-hydroxy-ethylcarbamoyl)-hexyl]-3,7-dimethyl-1,2,3,7,8,8a-hexahydro-naphthalen-1-yl Ester]
pIC50 [1, 3]: 5.40 | inhibition of neutrophil migration ([2]; 1 mg/kg): fully inhibit

CC[C@H](C)C(=O)O[C@H]1C[C@@H](C)C=C2C=C[C@H](C)[C@H](CCC(O)CC(O)CC(=O)NCc3ccccc3OC)[C@H]21 (stereo partly shown) [Example 15]
pIC50 [1, 3]: 5.66

CC[C@H](C)C(=O)O[C@H]1C[C@@H](C)C=C2C=C[C@H](C)[C@H](CCC(O)CC(O)CC(=O)N3CCC4(CC3)OCCO4)[C@H]21 (stereo partly shown) [Example 33]
pIC50 [1]: 5.92 | inhibition of neutrophil migration ([2]; 0.1 mg/kg): fully inhibit

CC[C@H](C)C(=O)O[C@H]1C[C@@H](C)C=C2C=C[C@H](C)[C@H](CC[C@@H]3C[C@@H](O)CC(=O)O3)[C@H]21 [mevinolin, Mevinolin]
binding to the MIDAS-site (LFA-1 I-domain; X-ray analysis of the complex): does not bind to the MIDAS-site | binding to the LFA-1 I-domain (south pole pocket) (LFA-1 I-domain; between the C-terminal helix α7 and one side of the β-sheet): binds to the LFA-1 I-domain
